The target of series [1] is T1, CYP2A6 (Homo sapiens, UniProt P11509).
T1 sequence (P11509 1-494): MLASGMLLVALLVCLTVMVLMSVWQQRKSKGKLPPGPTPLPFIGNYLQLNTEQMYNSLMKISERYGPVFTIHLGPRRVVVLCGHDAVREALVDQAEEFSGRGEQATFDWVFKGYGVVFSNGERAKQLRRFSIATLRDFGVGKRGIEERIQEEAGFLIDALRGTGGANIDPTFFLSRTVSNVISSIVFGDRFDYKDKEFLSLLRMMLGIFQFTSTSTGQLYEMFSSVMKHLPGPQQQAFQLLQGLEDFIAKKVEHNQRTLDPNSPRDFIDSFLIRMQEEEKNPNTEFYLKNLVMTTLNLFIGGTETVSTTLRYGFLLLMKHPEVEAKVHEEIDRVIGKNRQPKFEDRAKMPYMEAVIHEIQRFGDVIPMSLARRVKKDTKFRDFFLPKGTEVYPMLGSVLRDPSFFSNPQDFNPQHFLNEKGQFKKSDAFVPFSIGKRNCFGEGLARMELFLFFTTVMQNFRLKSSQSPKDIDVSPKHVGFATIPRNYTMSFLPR
In kind it is biochemical. The note with it: for inhibition of nornicotine formation: nicotine substrate, CYP2A6 microsomes; for IC50: nicotine 50 μM, rec CYP2A6 microsomes.

Series [2] has as its target T2, CYP2B6 (Homo sapiens, UniProt P20813).
T2 sequence (P20813 1-491): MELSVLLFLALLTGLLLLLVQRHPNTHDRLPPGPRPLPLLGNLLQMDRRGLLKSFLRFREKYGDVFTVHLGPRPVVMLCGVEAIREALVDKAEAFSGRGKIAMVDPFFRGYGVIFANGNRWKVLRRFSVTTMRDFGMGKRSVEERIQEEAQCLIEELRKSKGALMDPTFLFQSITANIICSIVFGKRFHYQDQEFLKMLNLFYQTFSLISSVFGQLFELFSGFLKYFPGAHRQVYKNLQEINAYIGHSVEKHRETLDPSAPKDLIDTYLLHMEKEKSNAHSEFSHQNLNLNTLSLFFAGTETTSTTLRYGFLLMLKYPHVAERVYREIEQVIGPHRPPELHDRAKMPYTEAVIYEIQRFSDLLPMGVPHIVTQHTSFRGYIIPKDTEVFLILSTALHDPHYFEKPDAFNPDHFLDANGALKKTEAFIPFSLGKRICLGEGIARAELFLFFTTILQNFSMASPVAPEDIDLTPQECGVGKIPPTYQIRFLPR
In kind it is biochemical. The settings on record: for inhibition of cotinine formation: nicotine substrate, CYP2B6 microsomes.

In another series the target is T3, FMO3 (Homo sapiens, UniProt P31513).
T3 sequence (P31513 1-532): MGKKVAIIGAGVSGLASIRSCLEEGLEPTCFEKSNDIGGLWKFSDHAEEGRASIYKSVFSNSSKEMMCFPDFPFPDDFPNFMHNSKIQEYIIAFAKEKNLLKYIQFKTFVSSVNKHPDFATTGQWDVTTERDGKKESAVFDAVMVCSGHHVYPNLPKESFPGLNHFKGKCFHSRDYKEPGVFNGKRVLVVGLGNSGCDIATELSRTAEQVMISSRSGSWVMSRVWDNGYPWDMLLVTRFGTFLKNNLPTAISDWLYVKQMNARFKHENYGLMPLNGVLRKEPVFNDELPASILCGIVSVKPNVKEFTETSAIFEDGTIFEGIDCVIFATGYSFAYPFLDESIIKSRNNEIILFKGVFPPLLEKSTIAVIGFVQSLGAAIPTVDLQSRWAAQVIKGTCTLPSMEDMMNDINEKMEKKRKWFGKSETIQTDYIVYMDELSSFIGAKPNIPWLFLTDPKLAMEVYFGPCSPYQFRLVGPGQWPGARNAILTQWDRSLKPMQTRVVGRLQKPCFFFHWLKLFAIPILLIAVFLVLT
In kind it is biochemical. The note with it: 1 or 10 μM cannabinoid; nicotine 1 mM; FMO3 microsomes.

Series [3] deals with human liver microsomes (HLM). Nature of the series: Inhibition of nicotine to cotinine formation in pooled human liver microsomes. The format is biochemical. The note with it: nicotine 500 μM. (In general: Microsomes from liver hold many membrane-bound enzymes, among them those of drug oxidation.)
For series [4] the following is noted: cited from earlier work; for physiological levels in the plasma corrected for plasma protein binding: after a single clinical dose of CBD.
The target of series [5] is T1, CYP2A6. The format is biochemical. The note with it: for decrease of 3HC formation: cotinine substrate, CYP2A6 microsomes; for IC50: cotinine 100 μM, rec CYP2A6 microsomes.
In a further series the target is T4, UGT2B10 (Homo sapiens, UniProt P36537).
T4 sequence (P36537 24-528): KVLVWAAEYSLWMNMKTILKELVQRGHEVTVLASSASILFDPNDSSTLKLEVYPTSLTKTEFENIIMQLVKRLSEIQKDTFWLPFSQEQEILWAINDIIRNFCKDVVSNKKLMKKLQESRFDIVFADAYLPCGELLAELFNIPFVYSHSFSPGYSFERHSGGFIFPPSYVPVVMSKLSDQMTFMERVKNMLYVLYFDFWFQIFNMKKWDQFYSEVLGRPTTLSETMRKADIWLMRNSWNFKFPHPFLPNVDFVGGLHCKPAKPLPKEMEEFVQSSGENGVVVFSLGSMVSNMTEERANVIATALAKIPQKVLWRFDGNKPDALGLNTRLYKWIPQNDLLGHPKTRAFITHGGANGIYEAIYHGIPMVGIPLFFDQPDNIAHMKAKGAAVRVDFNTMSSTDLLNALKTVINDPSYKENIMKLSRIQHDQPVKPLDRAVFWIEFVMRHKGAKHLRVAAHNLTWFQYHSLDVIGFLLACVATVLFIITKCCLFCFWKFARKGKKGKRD
In kind it is biochemical. The settings on record: UGT2B10 microsomes; nicotine or cotinine as substrate; screening.

In series [6] the target is T2, CYP2B6. The format is biochemical. The settings on record: for inhibition of nornicotine formation: nicotine substrate, CYP2B6 microsomes.
Series [7] deals with T1, CYP2A6. The format is biochemical. The note with it: for inhibition of cotinine formation: nicotine substrate, CYP2A6 microsomes, vs 100% activity control; for IC50: nicotine 100 μM, rec CYP2A6 microsomes.
For series [8], the system named is human liver microsomes (HLM). Nature of the series: Inhibition of cotinine to 3HC formation in pooled human liver microsomes. In kind it is biochemical. The settings on record: cotinine 900 μM.
The mark [9] stands for this setting: single dose regimen of Epidiolex (6000 mg).
[10] abbreviates: human, microsomes from CYP2B6-overexpressing HEK293 cells, pH 7.4, probe nicotine (cotinine formation).
The mark [11] stands for this setting: human, microsomes from CYP2B6-overexpressing HEK293 cells, pH 7.4, probe nicotine (nornicotine formation).

Where two headings read alike, the source gives them in different places.

On to `C=C(C)[C@@H]1CCC(CO)=C[C@H]1c1c(O)cc(CCCCC)cc1O` [7-OH-CBD, 7-hydroxy-cannabidiol], for which the “inhibition of nornicotine formation” value at CYP2A6 [1] (1 μM inhibitor) stood at 55%; against CYP2A6 [1] (10 μM inhibitor), 70%; at CYP2B6 [6] (1 μM inhibitor), 64%; on CYP2B6 [6] (10 μM inhibitor), 72%. Further, the IC50 – broadly, the concentration that gives 50% inhibition – on CYP2A6 [1] (nornicotine formation) came out at 2100 ± 970 nM; on CYP2A6 [1] (read-out: IC50,u (binding-corrected IC50), nornicotine formation, IC50 × fu,inc), 160 ± 80 nM; against CYP2B6 [2] (cotinine formation, nicotine 500 μM, rec CYP2B6 microsomes), 15 ± 5.7 µM; in [3], 21 ± 5.2 µM; on CYP2A6 [5] (3HC formation), 10000 ± 3000 nM; at CYP2A6 [5] (read-out: IC50,u (binding-corrected IC50), 3HC formation, IC50 × fu,inc), 780 ± 230 nM. For the same compound, the IC50 was determined as 1400 ± 400 nM against CYP2B6 [6] (nornicotine formation, nicotine 100 μM, rec CYP2B6 microsomes); 110 ± 30 nM at CYP2B6 [6] (read-out: IC50,u (binding-corrected IC50), nornicotine formation, nicotine 100 μM, rec CYP2B6 microsomes, IC50 × fu,inc); 5800 ± 2300 nM on CYP2A6 [7] (cotinine formation, mean ± SD of three experiments); 450 ± 180 nM at CYP2A6 [7] (read-out: IC50,u (binding-corrected IC50), cotinine formation, IC50 × fu,inc); 9.1 ± 3.4 µM in [8]. The “inhibition of cotinine formation” value on CYP2B6 [2] (1 μM inhibitor) stood at 35%; against CYP2B6 [2] (10 μM inhibitor), 50%; against CYP2A6 [7] (1 μM inhibitor), 50%; at CYP2A6 [7] (10 μM inhibitor) it was 75%. The “inhibitory effect on NOX formation” value on FMO3 is given as “No inhibitory effect”. Besides, the “physiological levels in the plasma corrected for plasma protein binding” value in series [4] was 0.04–0.09 μM. The “calculated unbound plasma Cmax” value in series [4] (setting [9]) was 0.0936 µM. Besides, the “decrease of 3HC formation” value on CYP2A6 [5] (1 μM inhibitor) came out at 45%; on CYP2A6 [5] (10 μM inhibitor) it was 65%. Moreover, at UGT2B10, the “inhibition of nicotine-Gluc or cotinine-Gluc formation” value is recorded as “no significant inhibition”.
Take `C=C(C)[C@@H]1CCC(C)=C[C@H]1c1c(O)cc(CCCCC)cc1O` [CBD, cannabidiol]: the IC50 on CYP2A6 [1] (IC50, nornicotine formation) came to 3700 ± 2200 nM; at CYP2A6 [1] (IC50,u (binding-corrected IC50), nornicotine formation, IC50 × fu,inc) it was 230 ± 140 nM; against CYP2B6 [2], 4.2 ± 2.7 µM; in [3], 10 ± 2.9 µM; on CYP2A6 [5] (IC50, 3HC formation), 3400 ± 2300 nM; on CYP2A6 [5] (IC50,u (binding-corrected IC50), 3HC formation, IC50 × fu,inc), 210 ± 140 nM. For the same compound, the IC50 on CYP2B6 [6] (IC50, nornicotine formation, nicotine 100 μM, rec CYP2B6 microsomes) was determined as 470 ± 77 nM; on CYP2B6 [6] (IC50,u (binding-corrected IC50), nornicotine formation, nicotine 100 μM, rec CYP2B6 microsomes, IC50 × fu,inc), 29 ± 5 nM; on CYP2A6 [7] (IC50, cotinine formation, mean ± SD of three experiments), 4400 ± 1000 nM; at CYP2A6 [7] (IC50,u (binding-corrected IC50), cotinine formation, IC50 × fu,inc), 270 ± 60 nM; in series [8], 8.8 ± 1.3 µM. The inhibition (commonly the percentage by which the read-out fell short of the control) at 30 min, 1 µM is 50% at CYP2B6 [2] (setting [10]) and 75% on CYP2B6 [6] (setting [11]). Further, the inhibition at 30 min, 10 µM was 65% at CYP2B6 [2] (setting [10]) and 85% at CYP2B6 [6] (setting [11]). In addition, on FMO3, the “inhibitory effect on NOX formation” value is on record as “No inhibitory effect”. In series [4], the “physiological levels in the plasma corrected for plasma protein binding” value is listed as 0.06–0.15 μM. The Cmax in [4] (read-out: plasma Cmax (maximum concentration), total, single dose regimen of Epidiolex (6000 mg)) is 2500 nM. Besides, the “calculated unbound plasma Cmax” value in series [4] (setting [9]) is 0.075 µM. Besides, the “decrease of 3HC formation” value at CYP2A6 [5] (1 μM inhibitor) is recorded as 55%; at CYP2A6 [5] (10 μM inhibitor), 60%. In addition, on UGT2B10, the “inhibition of nicotine-Gluc or cotinine-Gluc formation” value was “no significant inhibition”. This compound gave an IC50 at 30 min at CYP2B6 [6] (human, microsomes from CYP2B6-overexpressing HEK293 cells, pH 7.4, probe nicotine 100 μM (nornicotine formation), IC50,u (binding-corrected IC50), nornicotine formation, nicotine 100 μM, rec CYP2B6 microsomes, IC50 × fu,inc) of 30 ± 5 nM.

The record behind these values is article PMC9945182 (Chemical Research in Toxicology, 2023).
